Data reported in patent US12162861B2, “Dopamine D3 receptor selective antagonists/partial agonists; method of making; and use thereof” (THE UNITED STATES OF AMERICA, AS REPRESENTED BY THE …, priority 2016, dated 2024).
“Also recorded” adds a separate entry of the source.

Tests used:
human D2R = target: T1, human D2R (Homo sapiens, UniProt P14416); test: Radioligand competition binding, [3H]N-methylspiperone, D2R; conditions: Table 1A; HEK 293 cells transfected with hD2LR, [3H]N-methylspiperone; read-out: D2R K ± SEM
T1 construct: expressed in transfected cells; host or cells: HEK293
Experimental: Binding at dopamine D2-like receptors was determined using previously described methods. (Chen et al. “Tranylcypromine substituted cis-hydroxycyclobutylnaphthamides as potent and selective dopamine D(3) receptor antagonists.” J. Med. Chem. 2014, 57, 4962-4968) Membranes were prepared from HEK293 cells expressing human D2R, D3R or D4R, grown in a 50:50 mix of DMEM and Ham's F12 culture media, supplemented with 20 mM HEPES, 2 mM L-glutamine, 0.1 mM non-essential amino acids, 1× antibiotic/antimycotic, 10% heat-inactivated fetal bovine serum, and 200 μg/mL hygromycin (Life Technologies, Grand Island, NY) and kept in an incubator at 37° C. and 5% CO2. Upon reaching 80-90% confluence, cells were harvested using pre-mixed Earle's Balanced Salt Solution (EBSS) with 5 μM EDTA (Life Technologies) and centrifuged at 3000 rpm for 10 min at 21° C. The supernatant was removed and the pellet was resuspended in 10 mL hypotonic lysis buffer (5 mM MgCl2·6H2O, 5 mM Tris, pH 7.4 at 4° C.) and centrifuged at 20,000 rpm for 30 min at 4° C. The pellet was then resuspended in fresh EBSS buffer made from 8.7 g/L Earle's Balanced Salts without phenol red (US Biological, Salem, MA), 2.2 g/L sodium bicarbonate, pH to 7.4. A Bradford protein assay (Bio-Rad, Hercules, CA) was used to determine the protein concentration and membranes were diluted to 500 μg/mL and stored in a −80° C. freezer for later use.
Radioligand competition binding experiments were conducted using thawed membranes. Test compounds were freshly dissolved in 30% DMSO and 70% H2O to a stock concentration of 100 μM. To assist the solubilization of free-base compounds, 10 μl of glacial acetic acid was added along with the DMSO. Each test compound was then diluted into 13 half-log serial dilutions using 30% DMSO vehicle; final test concentrations ranged from 10 μM to 10 pM. Previously frozen membranes were diluted in fresh EBSS to a 100 μg/mL (for hD2R or hD3R) or 200 μg/mL (hD4R) stock for binding. Radioligand competition experiments were conducted in glass tubes containing 300 μl fresh EBSS buffer with 0.2 mM sodium metabisulfite, 50 μl of diluted test compound, 100 μl of membranes (10 μg total protein for hD2R or hD3R, 20 μg total protein for hD4R), and 50 μl of [^3H]N-methylspiperone (0.4 nM final concentration; Perkin Elmer). Nonspecific binding was determined using 10 μM butaclamol (Sigma-Aldrich, St. Louis, MO) and total binding was determined with 30% DMSO vehicle. All compound dilutions were tested in triplicate and the reaction incubated for one hour at room temperature. The reaction was terminated by filtration through Whatman GF/B filters, presoaked for one hour in 0.5% polyethylenimine, using a Brandel R48 filtering manifold (Brandel Instruments, Gaithersburg, MD). The filters were washed 3 times with 3 mL of ice cold EBSS buffer and transferred to scintillation vials. 3 mL CytoScint liquid scintillation cocktail (MP Biomedicals, Solon, OH) was added and vials were counted using a Perkin Elmer Tri-Carb 2910 TR liquid scintillation counter (Waltham, MA). IC50 values for each compound were determined from dose-response curves and Ki values were calculated using the Cheng-Prusoff equation; these analyses were performed using GraphPad Prism version 5.00 for Windows (GraphPad Software, San Diego, CA). Reported Ki values were determined from least three independent experiments.

opiate kappa receptor = opiate kappa receptor (Homo sapiens, UniProt P41145); test: Binding to opiate kappa receptor
squirrel monkeys = test: Food self-administration in squirrel monkeys; type: in vivo, squirrel monkey (Saimiri sciureus); conditions: squirrel monkeys, 1, 3, and 10 mg/kg i.m., FIG. 8
Excerpt: Subjects: Seven adult male squirrel monkeys (Saimiri sciureus) weighing 0.8 to 1.1 kg were housed in individual cages in a temperature- and humidity-controlled room with unrestricted access to water. […] The monkeys were trained to self-administer either THC or food pellets prior to the study. Monkeys were fed (approximately two hours after the session) a daily food ration consisting of biscuits of high protein monkey diet (Lab Diet 5045, PMI Nutrition International, Richmond, Indiana). The number of biscuits (8-14) was determined for each monkey individually to maintain their body weights at a constant level throughout the study. Monkeys self-administering food pellets had the number of biscuits adjusted to maintain the motivation to perform a food-reinforced task. Fresh fruits, vegetables and environmental enrichment were provided daily. […]
Data analysis: The number of reinforcements (injections or pellets) per session represents total number of injections delivered during each 1-hour session. The rates of responding are expressed as responses per second averaged over the 1 h session, with time and responding during time-outs not included in calculations. Data are expressed as mean response rates and numbers of reinforcements per session ±SEM. […]

rats = test: Thermal response (hot plate) in rats; type: in vivo, rat; conditions: hot plate 52 °C, FIG. 13
Experimental: Methods: Compound (±)-29 was administered 15 minutes before saline or oxycodone challenge. Tests were performed after the rat was placed inside a transparent circular cage on a hot plate (52±0.2° C.). Licking the hind paw or jumping was considered as a sign of thermal nociception. The rat was then immediately removed from the hot plate and the time latency was recorded.

T1 sequence (P14416 whole entry): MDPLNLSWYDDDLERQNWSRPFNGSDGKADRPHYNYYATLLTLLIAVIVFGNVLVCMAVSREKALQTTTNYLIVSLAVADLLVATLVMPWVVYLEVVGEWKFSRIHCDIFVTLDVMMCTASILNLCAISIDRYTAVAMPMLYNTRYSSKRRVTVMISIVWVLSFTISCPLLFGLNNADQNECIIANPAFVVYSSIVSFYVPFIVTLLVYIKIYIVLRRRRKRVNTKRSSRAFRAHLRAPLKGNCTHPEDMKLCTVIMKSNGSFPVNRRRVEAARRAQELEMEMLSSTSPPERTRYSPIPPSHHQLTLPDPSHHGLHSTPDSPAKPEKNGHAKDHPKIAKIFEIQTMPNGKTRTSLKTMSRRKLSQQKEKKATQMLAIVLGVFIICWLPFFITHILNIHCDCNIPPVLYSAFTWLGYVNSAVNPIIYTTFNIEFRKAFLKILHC
opiate kappa receptor, sequence (P41145 whole entry): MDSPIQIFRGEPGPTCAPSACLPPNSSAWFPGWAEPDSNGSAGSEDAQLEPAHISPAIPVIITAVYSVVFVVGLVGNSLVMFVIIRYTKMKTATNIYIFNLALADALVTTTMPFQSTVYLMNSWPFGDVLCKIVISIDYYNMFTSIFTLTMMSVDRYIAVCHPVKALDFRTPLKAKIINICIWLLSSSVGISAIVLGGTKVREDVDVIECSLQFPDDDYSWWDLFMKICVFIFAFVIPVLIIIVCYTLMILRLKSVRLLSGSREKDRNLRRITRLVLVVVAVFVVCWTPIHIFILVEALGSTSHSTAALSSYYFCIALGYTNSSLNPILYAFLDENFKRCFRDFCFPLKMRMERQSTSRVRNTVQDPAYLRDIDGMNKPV

`CCc1cc(Cl)c(OC)c(N2CCN(CC(O)CCNC(=O)c3cc4ccccc4[nH]3)CC2)c1` (racemic) [Compound 29, N-(4-(4-(3-chloro-5-ethyl-2-methoxyphenyl)piperazin-1-yl)-3-hydroxybutyl)-1H-indole-2-carboxamide] was tested, and the Ki (human D2R) was 17.1 ± 5.09 µM, the “binding to opiate kappa receptor” value (opiate kappa receptor) was “does not bind” and the food self-administration (squirrel monkeys) was “has no effect on food self-administration; also recorded: without affecting food self-administration”. For the same compound, the food self-administration (squirrel monkeys; listed as (±)-29) was “no effect on food self-administration”, the “thermal response after oxycodone challenge (oxycodone induced analgesia)” value (rats; 30 minutes following oxycodone 2 mg/kg i.p.) was “no significant effects on animal's thermal response; also recorded: no effect on oxycodone induced analgesia” and the “thermal response after saline challenge (analgesic effect of its own)” value (rats; 30 minutes following saline 1 ml/kg i.p.) was “no significant effects on animal's thermal response; also recorded: no analgesic effects of its own”.
